Measured values taken from US20090081170A1, “Cardiac progenitor cells” (priority 2007, published 2009).

Test system: infarcted mouse hearts
Test: Myocardial infarction model (coronary artery ligation) treated with Tβ4 or vehicle
Type: in vivo
Method: For in vivo studies, Western blotting, immunofluorescence and immunohistochemistry were performed using standard protocols with the following antibodies: Ki67 (Dako Cytomation), SMαA, sarcomeric α-actinin (Sigma), cardiac myosin binding protein […]-1, CD4, CD8b (all BD Pharmingen), Nkx2.5, VEGF, Tie-2 (all Santa Cruz), GAPDH, Tbx18 (both Chemicon), Isl-1 (clone 39.4D5, Developmental Studies Hybridoma Bank), Tbx18, TNFα, IL-6, IL-10, GFP (full length-detects EYFP), MCP1, cTnT, F4/80, CD45, MPO, (all abcam), Living colours Av peptide, polyclonal and mouse monoclonal JL-8 antibodies (detect EYFP, Clontech) Cx43 (Zymed) and Raldh2 (gift of P. McCaffery). Images were acquired using either a Zeiss Axiolmager with ApoTome or a Zeiss LSM 510 confocal microscope equipped with argon and helium neon lasers using a 63×/1.4 lens. Adult heart samples post myocardial infarction (MI) were kindly provided by James Clark, Cardiovascular Division, King's College London, St. Thomas' Hospital. Briefly, MI was induced in anaesthetised C57B1/6 male mice by ligation of the left anterior descending coronary artery for 30 minutes, followed by reperfusion. Animals were sacrificed one hour, one day or one week post MI and protein extracts prepared in Laemmli buffer for Western blotting and immunoassay to determine levels of Tβ4 and AcSDKP, respectively. For in vivo studies, one hour after recovery, animals received intraperitoneal injection of Tβ4 (150 μg in 0.1 ml PBS) or vehicle (0.1 ml PBS) as previously reported. Further injections were given after 2 and 4 days and hearts were harvested after 2, 4 and 7 days following ligation and prepared for western analysis and histological sectioning, as described above. Infarcts with equivalent extent of injury in the left ventricle were assessed for immunofluorescence and cell counts. […] We next determined the presence of adult EPDC-derived cardiomyocytes in vivo, in both a gain of function (intact heart) mouse model, established by intraperitoneal injection of Tβ4 or vehicle (PBS) into wild type adult mice, and an injury model of myocardial infarctions (by coronary artery ligation) in adult mice (n=27 MIs in total), treated with either Tβ4 (n=13) or vehicle (n=14, injection regimen as for gain of function; refer to Methods). Hearts were assessed using a combination of western and immunofluorescence analyses for myocardial markers after 2, 4, 7, 14 and 28 days for the gain of function model and 2, 4 and 7 days for the injury model.

[1] = infarcted hearts, 2 days of treatment, n=3, 35 fields

## Thymosin β4 [Tβ4]
2 days of treatment post-MI
  TNF-α reduction vs vehicle (western): 6.2 fold
2 days post-MI
  IL-10 increase compared to control (western): 8.1 fold
2 days post-MI, section through left ventricle wall
  infarct area (Image J): 0.292 mm^2
7 days of treatment post-MI
  increase in vessel area vs control (Image J): 2 fold
7 days of treatment post-MI, n=7
  vessel area/field: 10.67+/−0.55%
7 days post MI
  scar volume vs vehicle (trichrome): reduced scar volume
7 days post MI, trichrome
  epicardial fibrosis, share of the epicardium affected: ≤ 20%
Gata5-EYFP mice, 7 days treatment post-MI
  EPDC-derived (EYFP+) cardiomyocytes, % of total cardiomyocytes per field: 14.1%
Gata5-EYFP mice, 7 days treatment post-MI, n=6, 38 fields
  EYFP+ cardiomyocytes, mean number of positive cells/field +/−SEM: 49.53+/−4.68 cells/field
d2 MI
  Raldh2 up-regulation vs vehicle (western): 1.8 fold
  Tbx18 up-regulation vs vehicle (western): 2.8 fold
d2 and d4 post-MI
  infiltration of MPO+ neutrophils vs controls: reduced infiltration
d2 post MI
  macrophages (F4/80+) vs vehicle: elevated
d4 post-MI
  CD4:CD8 ratio: 7.4
d7 post-MI
  CD4:CD8 ratio: 10.8
  PECAM protein expression increase (western): 9.6 fold
  SMαA protein expression increase (western): 8.3 fold
  macrophages (F4/80+) vs vehicle: reduced
d7 post-MI, p=0.57
  fibroblast number (EYFP+/procollagen type I) vs control: did not vary significantly
Day 7 post-MI, left ventricle
  EYFP+ cardiomyocytes located in remote myocardium, % of total EYFP+ cardiomyocytes per field: 40%
  EYFP+ cardiomyocytes proximal to the border zone, % of total EYFP+ cardiomyocytes per field: 58%
Early stages post-MI
  IL-6 reduction vs vehicle (western): 4.1 fold
early, d2 post-MI
  MCP-1 up-regulation (western): 3.9 fold
Following MI
  proliferation of cells (Ki67) within the epicardium and subepicardial space: increase in proliferation
From 2 days post-MI onwards
  Isl1 elevated levels (western): 5.1 fold
  Nkx2.5 elevated levels (western): 1.9 fold
[1]
  Raldh2+ mean number of positive cells per field +/−SEM: 41.8+/−1.9 cells per field
  Tbx18+ mean number of positive cells per field +/−SEM: 36.1+/−3.1 cells per field
Infarcted hearts, 4 days
  increase in number of endothelial (PECAM+) cells vs vehicle: 3.5 fold
Infarcted hearts, 4 days, n=3
  PECAM+ number of cells per field +/−SEM: 150.33+/−10.94 cells per field
Initial stages post-MI
  MCP-1 levels (in words): significantly reduced levels
Post MI
  levels of MMP3 and -9: reduced levels
  levels of TIMP1 and -2: without an effect
post-MI, immunostaining
  P-NFκB positive cells at the infarct border zone: reduced number
